In US20230348369A1 (Cytokinetics, Inc., priority 2020, published 2023):
Where two headings read alike, the source gives them in different places.

Target: human NAMPT (Homo sapiens, UniProt P43490)
Assay: Human recombinant enzyme assay (NMN fluorescence biochemical assay, activation of NAMPT)
Outline: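 NMN production is detected fluorometrically (Ex 355/Em 460 nm) 40 min after acetophenone, KOH and formic acid derivatization. Reactions ran 60 min at ambient temperature: 6 nM human NAMPT, nicotinamide 150 μM, PRPP 20 μM, ATP 2.5 mM, buffered at pH 7.2 with 50 mM HEPES plus DTT, CHAPS, NaCl and 100 mM MgCl2.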

[1] = Table A, human recombinant NAMPT, NMN formation, 60 min
[2] = Table A, human recombinant NAMPT, NMN formation, 60 min, read-out: EC50 Human

Sequence of human NAMPT (P43490 whole entry): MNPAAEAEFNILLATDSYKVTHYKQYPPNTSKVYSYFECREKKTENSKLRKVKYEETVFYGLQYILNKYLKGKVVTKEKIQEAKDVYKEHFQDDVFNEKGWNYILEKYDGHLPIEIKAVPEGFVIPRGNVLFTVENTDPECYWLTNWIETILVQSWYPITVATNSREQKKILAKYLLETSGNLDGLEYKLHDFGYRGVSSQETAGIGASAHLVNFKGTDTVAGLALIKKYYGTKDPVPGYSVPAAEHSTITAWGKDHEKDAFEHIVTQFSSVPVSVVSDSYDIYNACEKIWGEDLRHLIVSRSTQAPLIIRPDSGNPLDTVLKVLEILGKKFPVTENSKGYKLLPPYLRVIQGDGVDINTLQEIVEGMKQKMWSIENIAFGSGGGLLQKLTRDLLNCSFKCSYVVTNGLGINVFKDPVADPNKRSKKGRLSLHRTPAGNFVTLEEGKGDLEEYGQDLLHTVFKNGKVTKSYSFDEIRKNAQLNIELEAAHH

Compound	AC1.4 Human [1] [µM]	EC50 [2] [µM]	EC50 [µM]
O=C(NCCCCC1CCN(C(=O)Cc2ccncc2)CC1)NCc1ccc(Cl)cc1 [Compound 295, 1-(4-chlorobenzyl)-3-(4-(1-(2-(pyridin-4-yl)acetyl)piperidin-4-yl)butyl)urea]	1.2	8.4	–
Cc1cccc(CC(=O)N2CCC(CCCCNC(=O)NCc3ccc(Cl)cc3)CC2)n1 [Compound 299, 1-(4-chlorobenzyl)-3-(4-(1-(2-(6-methylpyridin-2-yl)acetyl)piperidin-4-yl)butyl)urea]	1.0	3.8	–
O=C(NCCCCC1CCN(C(=O)C2CCOCC2)CC1)NCc1ccc(Cl)cc1 [Compound 300, 1-(4-chlorobenzyl)-3-(4-(1-(tetrahydro-2H-pyran-4-carbonyl)piperidin-4-yl)butyl)urea]	1.4	6.5	–
O=C1CC(C(=O)N2CCC(CCCCNC(=O)NCc3ccc(Cl)cc3)CC2)CCN1 (stereo not shown) [Compound 301, 1-(4-chlorobenzyl)-3-(4-(1-(2-oxopiperidine-4-carbonyl)piperidin-4-yl)butyl)urea]	2.7	26.3	–
CN1CCC(C(=O)N2CCC(CCCCNC(=O)NCc3ccc(Cl)cc3)CC2)CC1=O (stereo not shown) [Compound 302, 1-(4-chlorobenzyl)-3-(4-(1-(1-methyl-2-oxopiperidine-4-carbonyl)piperidin-4-yl)butyl)urea]	2.0	7.9	–
O=C1CC(C(=O)N2CCC(CCCCNC(=O)NCc3ccc(Cl)cc3)CC2)CN1 (stereo not shown) [Compound 303, 1-(4-chlorobenzyl)-3-(4-(1-(5-oxopyrrolidine-3-carbonyl)piperidin-4-yl)butyl)urea]	2.6	15.6	–
CN1CC(C(=O)N2CCC(CCCCNC(=O)NCc3ccc(Cl)cc3)CC2)CC1=O (stereo not shown) [Compound 304, 1-(4-chlorobenzyl)-3-(4-(1-(1-methyl-5-oxopyrrolidine-3-carbonyl)piperidin-4-yl)butyl)urea]	1.7	10.6	–
O=C(NCCCCC1CCN(c2ccccn2)CC1)NCc1ccc(Cl)cc1 [Compound 307, 1-(4-chlorobenzyl)-3-(4-(1-(pyridin-2-yl)piperidin-4-yl)butyl)urea]	1.9	7.3	–
O=C(NCCCCC1CCN(c2ccncc2)CC1)NCc1ccc(Cl)cc1 [Compound 308, 1-(4-chlorobenzyl)-3-(4-(1-(pyridin-4-yl)piperidin-4-yl)butyl)urea]	2.2	5	–
Cc1ncccc1CC(=O)N1CCC(CCCCNC(=O)NCc2ccc(Cl)cc2)CC1 [Compound 310, 1-(4-chlorobenzyl)-3-(4-(1-(2-(2-methylpyridin-3-yl)acetyl)piperidin-4-yl)butyl)urea]	0.8	4.1	–
O=C(NCCCCC1CCN(C(=O)Cc2cn[nH]c2)CC1)NCc1ccc(Cl)cc1 [Compound 316, 1-(4-(1-(2-(1H-pyrazol-4-yl)acetyl)piperidin-4-yl)butyl)-3-(4-chlorobenzyl)urea]	1.4	6.4	–
O=C(NCCCCN1CCN(C(=O)c2ccccc2)CC1)NCc1ccc(Cl)cc1 [Compound 317, 1-(4-(4-benzoylpiperazin-1-yl)butyl)-3-(4-chlorobenzyl)urea]	4.2	25.1	–
O=C(NCCCCC1CCN(c2nn[nH]n2)CC1)NCc1ccc(Cl)cc1 [Compound 318, 1-(4-(1-(2H-tetrazol-5-yl)piperidin-4-yl)butyl)-3-(4-chlorobenzyl)urea]	3.9	8.8	–
Cc1ccccc1C(=O)N1CCC(CCCCNC(=O)NCc2cnco2)CC1 [Compound 320, 1-(4-(1-(2-methylbenzoyl)piperidin-4-yl)butyl)-3-(oxazol-5-ylmethyl)urea]	0.1	1.4	–
Cc1ccccc1C(=O)N1CCC(CCCCNC(=O)NCc2ccncc2)CC1 [Compound 323, 1-(4-(1-(2-methylbenzoyl)piperidin-4-yl)butyl)-3-(pyridin-4-ylmethyl)urea]	0.2	1.6	–
[2H]C([2H])(NC(=O)NCCCCC1CCN(C(=O)c2ccccc2)CC1)c1cnco1 [Compound 324, 1-(4-(1-benzoylpiperidin-4-yl)butyl)-3-(oxazol-5-ylmethyl-d2)urea]	0.2	1.9	–
COc1ccc(CNC(=O)NC2CC3(C2)CC(c2nnc(-c4ccccc4)o2)C3)cc1 (stereo not shown) [Compound 325, 1-(4-Methoxybenzyl)-3-(6-(5-phenyl-1,3,4-oxadiazol-2-yl)spiro[3.3]heptan-2-yl)urea]	2.4	30.6	–
COc1ccc(CNC(=O)NC2CC3(C2)CC(c2nc(-c4ccccc4)co2)C3)cc1 (stereo not shown) [Compound 326, 1-(4-methoxybenzyl)-3-(6-(4-phenyloxazol-2-yl)spiro[3.3]heptan-2-yl)urea]	4.5	–	–
COc1ccc(CNC(=O)NC2CC3(C2)CC(c2nc4ccccc4o2)C3)cc1 (stereo not shown) [Compound 327, 1-(6-(benzo[d]oxazol-2-yl)spiro[3.3]heptan-2-yl)-3-(4-methoxybenzyl)urea]	4.1	–	17.4
O=C(NCc1ccc(Cl)cc1)NC1CC2(C1)CC(C(O)c1ccccc1)C2 (stereo not shown) [Compound 328, 1-(4-chlorobenzyl)-3-(6-(hydroxy(phenyl)methyl)spiro[3.3]heptan-2-yl)urea]	1.2	4.3	–
O=C(NCc1ccc(Cl)cc1)NC1CC2(CC(Cc3cnccn3)C2)C1 (stereo not shown) [Compound 331, 1-(4-chlorobenzyl)-3-(6-(pyrazin-2-ylmethyl)spiro[3.3]heptan-2-yl)urea]	2.2	1.3	–
N#Cc1cnn(CC2CC3(C2)CC(NC(=O)NCc2ccc(Cl)cc2)C3)c1 (stereo not shown) [Compound 333, 1-(4-chlorobenzyl)-3-(6-((4-cyano-1H-pyrazol-1-yl)methyl)spiro[3.3]heptan-2-yl)urea]	1.8	–	4.4
COc1ccc(CNC(=O)NC2CC3(CC(Cc4ccc(C)cc4)C3)C2)cc1 (stereo not shown) [Compound 334, 1-(4-methoxybenzyl)-3-(6-(4-methylbenzyl)spiro[3.3]heptan-2-yl)urea]	2.3	2.7	–

Further lines, with some results ahead:

AC1.4 Human [1] [µM]	EC50 [2] [µM]	Compound	EC50 [µM]
1.3	6.2	O=C(NCCCCC1CCN(C(=O)c2ccncc2)CC1)NCc1ccc(Cl)cc1 [Compound 290, 1-(4-chlorobenzyl)-3-(4-(1-isonicotinoylpiperidin-4-yl)butyl)urea]	–
1.9	4.6	O=C(NCCCCC1CCN(C(=O)Cc2ccccc2)CC1)NCc1ccc(Cl)cc1 [Compound 291, 1-(4-chlorobenzyl)-3-(4-(1-(2-phenylacetyl)piperidin-4-yl)butyl)urea]	–
0.5	2	O=C(NCCCCC1CCN(C(=O)c2ccccn2)CC1)NCc1ccc(Cl)cc1 [Compound 292, 1-(4-chlorobenzyl)-3-(4-(1-picolinoylpiperidin-4-yl)butyl)urea]	–
1.0	10.1	O=C(NCCCCC1CCN(C(=O)Cc2cccnc2)CC1)NCc1ccc(Cl)cc1 [Compound 294, 1-(4-chlorobenzyl)-3-(4-(1-(2-(pyridin-3-yl)acetyl)piperidin-4-yl)butyl)urea]	–
0.2	0.4	O=C(NCCCCC1CCN(C(=O)c2ncco2)CC1)NCc1ccc(Cl)cc1 [Compound 305, 1-(4-chlorobenzyl)-3-(4-(1-(oxazole-2-carbonyl)piperidin-4-yl)butyl)urea]	–
0.4	1.2	O=C(NCCCCC1CCN(C(=O)c2ccno2)CC1)NCc1ccc(Cl)cc1 [Compound 306, 1-(4-chlorobenzyl)-3-(4-(1-(isoxazole-5-carbonyl)piperidin-4-yl)butyl)urea]	–
2.1	6.5	Cc1ccc(C(=O)N2CCC(CCCCNC(=O)NCc3ccc(Cl)cc3)CC2)cn1 [Compound 309, 1-(4-chlorobenzyl)-3-(4-(1-(6-methylnicotinoyl)piperidin-4-yl)butyl)urea]	–
1.2	3.4	Cc1ccc(CC(=O)N2CCC(CCCCNC(=O)NCc3ccc(Cl)cc3)CC2)cn1 [Compound 311, 1-(4-chlorobenzyl)-3-(4-(1-(2-(6-methylpyridin-3-yl)acetyl)piperidin-4-yl)butyl)urea]	–
1.5	5.4	Cn1cc(C(=O)N2CCC(CCCCNC(=O)NCc3ccc(Cl)cc3)CC2)nn1 [Compound 312, 1-(4-chlorobenzyl)-3-(4-(1-(1-methyl-1H-1,2,3-triazole-4-carbonyl)piperidin-4-yl)butyl)urea]	–
0.7	1.4	Cc1ccccc1CC(=O)N1CCC(CCCCNC(=O)NCc2ccc(Cl)cc2)CC1 [Compound 313, 1-(4-chlorobenzyl)-3-(4-(1-(2-(o-tolyl)acetyl)piperidin-4-yl)butyl)urea]	–
0.5	0.7	O=C(NCCCCC1CCN(C(=O)c2ccccc2C(F)F)CC1)NCc1ccc(Cl)cc1 [Compound 314, 1-(4-chlorobenzyl)-3-(4-(1-(2-(difluoromethyl)benzoyl)piperidin-4-yl)butyl)urea]	–
0.9	2	O=C(NCCCCC1CCN(C(=O)c2ccccc2-c2nnn[nH]2)CC1)NCc1ccc(Cl)cc1 [Compound 315, 1-(4-(1-(2-(1H-tetrazol-5-yl)benzoyl)piperidin-4-yl)butyl)-3-(4-chlorobenzyl)urea]	–
0.8	0.8	Cc1cccc(C)c1C(=O)N1CCC(CCCCNC(=O)NCc2ccc(Cl)cc2)CC1 [Compound 319, 1-(4-chlorobenzyl)-3-(4-(1-(2,6-dimethylbenzoyl)piperidin-4-yl)butyl)urea]	–
0.1	2.1	Cc1ccccc1C(=O)N1CCC(CCCCNC(=O)NCc2ccc(C(N)=O)cc2)CC1 [Compound 321, 4-((3-(4-(1-(2-methylbenzoyl)piperidin-4-yl)butyl)ureido)methyl)benzamide]	–
